In brackets after ≈: the same amount, converted by molar mass.
Key:
Type in all cases: functional
Bacillus cereus [1] = assay: Antimicrobial activity against Bacillus cereus ATCC 10876 assessed as >99.9 % reduction in CFU after 18 hrs by broth microdilution method; conditions: ATCC 10876, 18 h
Klebsiella pneumoniae [2] = assay: Antimicrobial activity against Klebsiella pneumoniae ATCC 13883 after 18 hrs by broth microdilution method; conditions: ATCC 13883, 18 h
Bacillus cereus [3] = assay: Antimicrobial activity against Bacillus cereus ATCC 10876 after 18 hrs by broth microdilution method; conditions: ATCC 10876, 18 h
Bacillus subtilis [4] = assay: Antimicrobial activity against Bacillus subtilis ATCC […] assessed as >99.9 % reduction in CFU after 18 hrs by broth microdilution method
Bacillus subtilis [5] = assay: Antimicrobial activity against Bacillus subtilis ATCC […] after 18 hrs by broth microdilution method
Staphylococcus aureus [6] = assay: Antimicrobial activity against Staphylococcus aureus ATCC 25923 after 18 hrs by broth microdilution method; conditions: ATCC 25923, 18 h
Proteus mirabilis [7] = assay: Antimicrobial activity against Proteus mirabilis ATCC 12453 assessed as >99.9 % reduction in CFU after 18 hrs by broth microdilution method; conditions: ATCC 12453, 18 h, read-out: MBC
Proteus mirabilis [8] = assay: Antimicrobial activity against Proteus mirabilis ATCC 12453 after 18 hrs by broth microdilution method; conditions: ATCC 12453, 18 h, read-out: MIC
Klebsiella pneumoniae [9] = assay: Antimicrobial activity against Klebsiella pneumoniae ATCC 13883 assessed as >99.9 % reduction in CFU after 18 hrs by broth microdilution method; conditions: ATCC 13883, 18 h, read-out: MBC
Staphylococcus aureus [10] = assay: Antimicrobial activity against Staphylococcus aureus ATCC 25923 assessed as >99.9 % reduction in CFU after 18 hrs by broth microdilution method; conditions: ATCC 25923, 18 h
[11] = test system: Staphylococcus epidermidis; assay: Antimicrobial activity against Staphylococcus epidermidis ATCC 12228 after 18 hrs by broth microdilution method; conditions: ATCC 12228, 18 h
Escherichia coli [12] = assay: Antimicrobial activity against Escherichia coli ATCC 25922 after 18 hrs by broth microdilution method; conditions: ATCC 25922, 18 h
Staphylococcus aureus [13] = assay: Antimicrobial activity against Staphylococcus aureus ATCC 6538 assessed as >99.9 % reduction in CFU after 18 hrs by broth microdilution method; conditions: ATCC 6538, 18 h
Staphylococcus aureus [14] = assay: Antimicrobial activity against Staphylococcus aureus ATCC 6538 after 18 hrs by broth microdilution method; conditions: ATCC 6538, 18 h
Micrococcus luteus [15] = assay: Antimicrobial activity against Micrococcus luteus ATCC 10240 assessed as >99.9 % reduction in CFU after 18 hrs by broth microdilution method; conditions: ATCC 10240, 18 h
Escherichia coli [16] = assay: Antimicrobial activity against Escherichia coli ATCC 25922 assessed as >99.9 % reduction in CFU after 18 hrs by broth microdilution method; conditions: ATCC 25922, 18 h
Micrococcus luteus [17] = assay: Antimicrobial activity against Micrococcus luteus ATCC 10240 after 18 hrs by broth microdilution method; conditions: ATCC 10240, 18 h
[18] = test system: Staphylococcus epidermidis; assay: Antimicrobial activity against Staphylococcus epidermidis ATCC 12228 assessed as >99.9 % reduction in CFU after 18 hrs by broth microdilution method; conditions: ATCC 12228, 18 h

Compound	MBC (Bacillus cereus [1])	MIC (Klebsiella pneumoniae [2])	MIC (Bacillus cereus [3])	MBC (Bacillus subtilis [4])	MIC (Bacillus subtilis [5])	MIC (Staphylococcus aureus [6])	MBC (Proteus mirabilis [7])	MIC (Proteus mirabilis [8])	MBC (Klebsiella pneumoniae [9])	MBC (Staphylococcus aureus [10])	MIC [11]	MIC (Escherichia coli [12])	MBC (Staphylococcus aureus [13])	MIC (Staphylococcus aureus [14])	MBC (Micrococcus luteus [15])	MBC (Escherichia coli [16])	MIC (Micrococcus luteus [17])	MBC [18]
S=c1n(CN2CCCC2)nc(-c2cccc(Cl)c2)n1-c1ccc(Br)cc1	> 1000 µg/mL	> 1000 µg/mL	62.5 µg/mL (≈ 139 µM)	500 µg/mL (≈ 1110 µM)	62.5 µg/mL (≈ 139 µM)	31.2 µg/mL (≈ 69.5 µM)	> 1000 µg/mL	> 1000 µg/mL	> 1000 µg/mL	> 1000 µg/mL	250 µg/mL (≈ 556 µM)	> 1000 µg/mL	> 1000 µg/mL	62.5 µg/mL (≈ 139 µM)	> 1000 µg/mL	> 1000 µg/mL	62.5 µg/mL (≈ 139 µM)	> 1000 µg/mL
S=c1n(CN2CCCC2)nc(-c2cccc(Cl)c2)n1-c1ccccc1	> 1000 µg/mL	250 µg/mL (≈ 674 µM)	125 µg/mL (≈ 337 µM)	500 µg/mL (≈ 1350 µM)	125 µg/mL (≈ 337 µM)	125 µg/mL (≈ 337 µM)	> 1000 µg/mL	500 µg/mL (≈ 1350 µM)	500 µg/mL (≈ 1350 µM)	500 µg/mL (≈ 1350 µM)	125 µg/mL (≈ 337 µM)	500 µg/mL (≈ 1350 µM)	500 µg/mL (≈ 1350 µM)	125 µg/mL (≈ 337 µM)	1000 µg/mL (≈ 2700 µM)	500 µg/mL (≈ 1350 µM)	125 µg/mL (≈ 337 µM)	1000 µg/mL (≈ 2700 µM)
S=c1n(CN2CCCC2)nc(-c2cccc(Cl)c2)n1-c1ccccc1Br	> 1000 µg/mL	> 1000 µg/mL	> 1000 µg/mL	> 1000 µg/mL	> 1000 µg/mL	250 µg/mL (≈ 556 µM)	> 1000 µg/mL	> 1000 µg/mL	> 1000 µg/mL	> 1000 µg/mL	500 µg/mL (≈ 1110 µM)	> 1000 µg/mL	> 1000 µg/mL	250 µg/mL (≈ 556 µM)	> 1000 µg/mL	> 1000 µg/mL	500 µg/mL (≈ 1110 µM)	> 1000 µg/mL
S=c1n(CN2CCCC2)nc(-c2cccc(Cl)c2)n1-c1ccc(Cl)cc1	> 1000 µg/mL	500 µg/mL (≈ 1230 µM)	125 µg/mL (≈ 308 µM)	> 1000 µg/mL	125 µg/mL (≈ 308 µM)	125 µg/mL (≈ 308 µM)	> 1000 µg/mL	> 1000 µg/mL	1000 µg/mL (≈ 2470 µM)	125 µg/mL (≈ 308 µM)	1000 µg/mL (≈ 2470 µM)	1000 µg/mL (≈ 2470 µM)	> 1000 µg/mL	> 1000 µg/mL	1000 µg/mL (≈ 2470 µM)	1000 µg/mL (≈ 2470 µM)	1000 µg/mL (≈ 2470 µM)	1000 µg/mL (≈ 2470 µM)
